Source: ChEMBL document CHEMBL1128963, “A non-peptide ligand for the somatostatin receptor having a benzodiazepinone structure” (Bioorg Med Chem Lett, 1996)

biological target: Somatostatin receptor; experiment: Compound was tested for its inhibitory effect against somatostatin receptor in rat cortex membrane using [125I]Tyr3-octreotide as the radioligand; type: cell membranes

Q: For `NCCCCCN1C(=O)C(Cc2c[nH]c3ccccc23)N(C(=O)c2ccccc2)Cc2ccccc21` (single isomer, unassigned; (-)), which IC50 is on record?
A: The IC50 was 6.5 µM.

Q: What about the “Log Ki” value of the same compound?
A: Its value is -5.2.

Q: For `NCCCCCN1C(=O)C(Cc2c[nH]c3ccccc23)N(C(=O)c2ccccc2)Cc2ccccc21` (stereo in doubt; 2), which IC50 is on record?
A: The IC50 was 7 µM.

Q: And the “Log Ki” value?
A: Its value is -5.1.

Q: How did the IC50 turn out when `NCCCCCN1C(=O)C(Cc2c[nH]c3ccccc23)N(C(=O)c2ccccc2)Cc2ccccc21` (stereo in doubt; (+)2) was run?
A: The IC50 was 8.2 µM.

Q: For `C[C@H](N)C(=O)NCC(=O)N[C@@H]1CSSC[C@@H](C(=O)O)NC(=O)[C@H](CO)NC(=O)[C@@H]([C@@H](C)O)NC(=O)[C@H](Cc2ccccc2)NC(=O)[C@@H]([C@@H](C)O)NC(=O)[C@H](CCCCN)NC(=O)[C@H](Cc2c[nH]c3ccccc23)NC(=O)[C@H](Cc2ccccc2)NC(=O)[C@@H](Cc2ccccc2)NC(=O)[C@H](CC(N)=O)NC(=O)[C@@H](CCCCN)NC1=O` [SOMATOSTATIN RECEPTOR LIGAND], which IC50 is on record?
A: The IC50 was 0.00043 µM.
